Measured values published in EPA's ToxValDB 9.5 (doi:10.2903/j.efsa.2018.5140).
Several values for one entry are separate records, joined by “and”; a condition that tells them apart may be missing. Identical values can stand only once.

Key:
[1] = tested on: Rattus norvegicus
[2] = tested on: Colinus virginianus; conditions: for LD50: acute, oral, mortality
[3] = tested on: Aphidius rhopalosiphi; assay: LR50; higher = less toxic; conditions: acute; mortality
[4] = tested on: Neomysis kadiakensis; conditions: chronic/long-term; duration: 28 days; reproduction
[5] = tested on: Pimephales promelas; conditions: chronic/long-term; duration: 28 days
[6] = tested on: Folsomia candida; conditions: chronic/long-term; duration: 28 days; reproduction
[7] = tested on: Oncorhynchus mykiss; conditions: acute; duration: 96 hours; mortality
[8] = tested on: Apis mellifera; conditions: acute, mortality
[9] = tested on: Canidae; conditions: oral, Dog Other, hematological

Compound | LC50 ([1]; acute, M, mortality) | LD50 ([1]; acute, oral, F, mortality) | LD50 [2] | LR50 [3] | LD50 ([1]; acute, oral, mortality) | NOAEL ([1]; chronic) | NOAEL ([1]; chronic, duration: 2 years, hematological) | NOAEL ([1]; reproduction developmental, body weight) | NOAEL ([1]; subchronic, duration: 90 days, oral, hematological) | NOAEL ([1]; subchronic, oral, hematological) | NOEC [4] | NOEC [5] | NOEC [6] | LC50 [7] | LD50 ([8]; dermal) | LD50 ([8]; oral, unspecified) | LOAEL ([9]; chronic, duration: 1 years) | LOAEL ([9]; subchronic, duration: 90 days) | NOAEL ([2]; reproduction developmental)
COC(=O)[C@@]12Cc3cc(Cl)ccc3C1=NN(C(=O)Nc1ccc(OC(F)(F)F)cc1)CO2 | 52 mg/kg | 39 mg/kg | 1750 mg/kg |  |  |  |  |  |  |  |  |  |  |  |  |  |  |  | 
COC(=O)N(C(=O)N1CO[C@@]2(C(=O)OC)Cc3cc(Cl)ccc3C2=N1)c1ccc(OC(F)(F)F)cc1 [Indoxacarb] |  |  | 73.5 mg/kg-day | 5.1 g/ha | 146 mg/kg-day | 0.6 mg/kg-day | 1.04 mg/kg-day | 0.5 mg/kg-day | 0.68 mg/kg-day and 0.99 mg/kg-day | 0.76 mg/kg-day | 0.0138 mg/L | 0.0675 mg/L | 1 mg/kg | > 0.17 µg/mL | 0.0682 µg/piece | 0.232 µg/piece | 1.1 mg/kg-day | 1 mg/kg-day | 56.8 mg/kg-day
